{
  "source": "paper PMC8534050",
  "about": "“Discovery of a Potent and Highly Isoform-Selective Inhibitor of the Neglected Ribosomal Protein S6 Kinase Beta 2 (S6K2)” (Cancers, 2021)",
  "key": {"[1]": {"assay": "Glutathione (GSH) stability assay (HPLC)", "conditions": "glutathione (GSH, 5 mM) in MeCN/PBS buffer", "description": "The reaction temperature was chosen to be 40 °C.\nGlutathione (GSH) Stability Assay\n• 0 min: 40% MeOH, 60% phosphate buffer pH 2.3;\n• 20 min: 85% MeOH, 15% phosphate buffer pH 2.3;\n• 9 min: 95% MeOH, 5% phosphate buffer pH 2.3;\n• 10 min: 95% MeOH, 5% phosphate buffer pH 2.3;"}, "[2]": {"biological_target": "T1, S6K2 (Homo sapiens, UniProt Q9UBS0)", "T1 construct": "purchased Reaction Biology Corp", "assay": "HotSpot kinase assay (Reaction Biology)", "type": "biochemical", "conditions": "apparent IC50; five-point; compound 2 triplicate, ± standard deviation", "method": "The provided IC50 values were measured using the HotSpot^TM Kinase Profiling assay and conducted at Reaction Biology Corp. in their facilities in Malvern, PA, USA."}, "[3]": {"tested_on": "S6K1", "conditions": "cited from earlier work"}, "[4]": {"tested_on": "S6K2", "set-up": "method as in PMID 20704563", "conditions": "cited from earlier work"}, "[5]": {"biological_target": "T2, PAK1 (Homo sapiens, UniProt Q13153)", "T2 construct": "purchased in-house DSF (thermal shift) panel per Fedorov et al", "assay": "DSF thermal shift assay", "type": "binding", "conditions": "read-out: ΔTm", "method": "(§1) Differences in the melting temperature (ΔTm) were measured as described by Fedorov et al.. Purified proteins were buffered in 25 mM HEPES (pH 7.5), 500 mM NaCl and were assayed in a 384-well plate with a final protein concentration of 2 μM in 10 μL assay volume. Inhibitors were added to a final concentration of 10 μM using an ECHO 550 acoustic dispenser (Labcyte, San José, CA, USA). As a fluorescence probe, SYPRO-Orange (Molecular Probes, Eugene, OR, USA) was added in a 1:5000 dilution. Filters for excitation and emission were set to 465 nm and 590 nm, respectively. The temperature was increased from 25 °C with 3 °C/min to a final temperature of 95 °C, while scanning, using the QuantStudio5 (Applied Biosystems, Waltham, MA, USA). Data were analyzed through Boltzmann equation in the Protein Thermal Shift software (Applied Biosystems, Waltham, MA, USA). Samples were measured in technical duplicates."}, "[6]": {"biological_target": "T3, MAPK6 (Homo sapiens, UniProt Q16659)", "T3 construct": "purchased in-house DSF (thermal shift) panel per Fedorov et al", "assay": "DSF thermal shift assay", "type": "binding", "conditions": "read-out: ΔTm", "method": "as §1"}, "[7]": {"biological_target": "T4, CAMKK2 (Homo sapiens, UniProt Q96RR4)", "T4 construct": "purchased in-house DSF (thermal shift) panel per Fedorov et al", "assay": "DSF thermal shift assay", "type": "binding", "conditions": "read-out: ΔTm", "method": "as §1"}, "[8]": {"biological_target": "T5, MAPK13 (Homo sapiens, UniProt O15264)", "T5 construct": "purchased in-house DSF (thermal shift) panel per Fedorov et al", "T5 sequence (O15264 whole entry)": "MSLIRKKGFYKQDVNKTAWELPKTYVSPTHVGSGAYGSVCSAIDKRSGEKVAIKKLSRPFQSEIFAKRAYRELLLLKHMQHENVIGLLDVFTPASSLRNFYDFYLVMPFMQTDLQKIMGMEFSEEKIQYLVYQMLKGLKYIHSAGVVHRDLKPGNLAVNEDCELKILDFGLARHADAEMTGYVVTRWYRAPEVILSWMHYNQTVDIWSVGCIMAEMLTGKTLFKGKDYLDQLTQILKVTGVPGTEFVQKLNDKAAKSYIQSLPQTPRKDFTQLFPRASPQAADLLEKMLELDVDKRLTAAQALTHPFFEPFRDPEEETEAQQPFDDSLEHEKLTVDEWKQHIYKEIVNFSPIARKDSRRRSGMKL", "assay": "DSF thermal shift assay", "type": "binding", "conditions": "read-out: ΔTm", "method": "as §1"}, "[9]": {"biological_target": "T6, SLK (Homo sapiens, UniProt Q9H2G2)", "T6 construct": "purchased in-house DSF (thermal shift) panel per Fedorov et al", "assay": "DSF thermal shift assay", "type": "binding", "conditions": "read-out: ΔTm", "method": "as §1"}, "[10]": {"biological_target": "T7, NEK2 (Homo sapiens, UniProt P51955)", "T7 construct": "purchased in-house DSF (thermal shift) panel per Fedorov et al", "T7 sequence (P51955 whole entry)": "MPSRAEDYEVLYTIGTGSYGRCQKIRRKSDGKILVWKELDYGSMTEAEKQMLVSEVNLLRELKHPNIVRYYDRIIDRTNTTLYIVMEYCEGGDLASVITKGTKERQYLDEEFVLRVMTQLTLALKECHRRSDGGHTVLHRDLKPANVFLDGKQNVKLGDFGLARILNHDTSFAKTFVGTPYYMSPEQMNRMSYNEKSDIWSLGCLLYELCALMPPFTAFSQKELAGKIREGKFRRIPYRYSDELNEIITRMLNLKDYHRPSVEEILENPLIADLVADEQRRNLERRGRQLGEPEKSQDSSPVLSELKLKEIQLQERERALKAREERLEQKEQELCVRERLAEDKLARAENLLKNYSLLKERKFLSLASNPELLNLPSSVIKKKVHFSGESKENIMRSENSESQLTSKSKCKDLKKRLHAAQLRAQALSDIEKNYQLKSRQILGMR", "assay": "DSF thermal shift assay", "type": "binding", "conditions": "read-out: ΔTm", "method": "as §1"}, "[11]": {"biological_target": "T8, MERTK (Homo sapiens, UniProt Q12866)", "T8 construct": "purchased in-house DSF (thermal shift) panel per Fedorov et al", "T8 sequence (Q12866 21-999)": "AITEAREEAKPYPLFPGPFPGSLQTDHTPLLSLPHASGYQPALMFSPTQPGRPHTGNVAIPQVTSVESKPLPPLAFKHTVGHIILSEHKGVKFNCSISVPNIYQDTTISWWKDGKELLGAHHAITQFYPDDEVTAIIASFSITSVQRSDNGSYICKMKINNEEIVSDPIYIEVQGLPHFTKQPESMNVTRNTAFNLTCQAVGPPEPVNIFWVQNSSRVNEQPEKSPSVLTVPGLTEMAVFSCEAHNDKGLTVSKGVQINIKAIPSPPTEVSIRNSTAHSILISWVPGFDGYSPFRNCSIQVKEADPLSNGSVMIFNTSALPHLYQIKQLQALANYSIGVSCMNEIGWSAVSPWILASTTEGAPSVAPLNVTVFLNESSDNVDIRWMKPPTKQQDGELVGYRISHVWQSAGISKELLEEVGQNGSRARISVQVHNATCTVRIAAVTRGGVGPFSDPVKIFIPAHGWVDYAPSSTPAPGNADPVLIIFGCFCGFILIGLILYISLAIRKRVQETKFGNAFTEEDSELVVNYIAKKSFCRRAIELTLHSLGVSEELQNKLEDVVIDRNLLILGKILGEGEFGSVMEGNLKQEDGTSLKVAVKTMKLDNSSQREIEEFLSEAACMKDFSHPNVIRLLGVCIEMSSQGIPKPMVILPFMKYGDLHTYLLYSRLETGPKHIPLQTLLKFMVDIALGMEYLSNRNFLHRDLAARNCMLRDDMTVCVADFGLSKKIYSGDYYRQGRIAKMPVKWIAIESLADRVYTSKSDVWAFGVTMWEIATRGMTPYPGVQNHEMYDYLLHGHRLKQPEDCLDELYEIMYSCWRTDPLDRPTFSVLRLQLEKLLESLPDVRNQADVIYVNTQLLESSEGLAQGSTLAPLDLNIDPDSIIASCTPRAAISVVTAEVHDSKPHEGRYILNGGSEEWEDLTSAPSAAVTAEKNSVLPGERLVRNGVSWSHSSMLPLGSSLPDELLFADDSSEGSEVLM", "assay": "DSF thermal shift assay", "type": "binding", "conditions": "read-out: ΔTm", "method": "as §1"}, "[12]": {"biological_target": "T9, EPHB3 (Homo sapiens, UniProt P54753)", "T9 construct": "purchased in-house DSF (thermal shift) panel per Fedorov et al", "assay": "DSF thermal shift assay", "type": "binding", "conditions": "read-out: ΔTm", "method": "as §1"}, "[13]": {"biological_target": "T10, CDC42BPA (Homo sapiens, UniProt Q5VT25)", "T10 construct": "purchased in-house DSF (thermal shift) panel per Fedorov et al", "assay": "DSF thermal shift assay", "type": "binding", "conditions": "read-out: ΔTm", "method": "as §1"}, "[14]": {"biological_target": "T11, OSR1 (Homo sapiens, UniProt O95747)", "T11 construct": "purchased in-house DSF (thermal shift) panel per Fedorov et al", "assay": "DSF thermal shift assay", "type": "binding", "conditions": "read-out: ΔTm", "method": "as §1"}, "[15]": {"biological_target": "T12, RPS6K5 (Homo sapiens, UniProt O75582)", "T12 construct": "purchased in-house DSF (thermal shift) panel per Fedorov et al", "assay": "DSF thermal shift assay", "type": "binding", "conditions": "read-out: ΔTm", "method": "as §1"}, "[16]": {"biological_target": "T13, WNK1 (Homo sapiens, UniProt Q9H4A3)", "T13 construct": "purchased in-house DSF (thermal shift) panel per Fedorov et al", "T13 sequence (Q9H4A3 whole entry)": "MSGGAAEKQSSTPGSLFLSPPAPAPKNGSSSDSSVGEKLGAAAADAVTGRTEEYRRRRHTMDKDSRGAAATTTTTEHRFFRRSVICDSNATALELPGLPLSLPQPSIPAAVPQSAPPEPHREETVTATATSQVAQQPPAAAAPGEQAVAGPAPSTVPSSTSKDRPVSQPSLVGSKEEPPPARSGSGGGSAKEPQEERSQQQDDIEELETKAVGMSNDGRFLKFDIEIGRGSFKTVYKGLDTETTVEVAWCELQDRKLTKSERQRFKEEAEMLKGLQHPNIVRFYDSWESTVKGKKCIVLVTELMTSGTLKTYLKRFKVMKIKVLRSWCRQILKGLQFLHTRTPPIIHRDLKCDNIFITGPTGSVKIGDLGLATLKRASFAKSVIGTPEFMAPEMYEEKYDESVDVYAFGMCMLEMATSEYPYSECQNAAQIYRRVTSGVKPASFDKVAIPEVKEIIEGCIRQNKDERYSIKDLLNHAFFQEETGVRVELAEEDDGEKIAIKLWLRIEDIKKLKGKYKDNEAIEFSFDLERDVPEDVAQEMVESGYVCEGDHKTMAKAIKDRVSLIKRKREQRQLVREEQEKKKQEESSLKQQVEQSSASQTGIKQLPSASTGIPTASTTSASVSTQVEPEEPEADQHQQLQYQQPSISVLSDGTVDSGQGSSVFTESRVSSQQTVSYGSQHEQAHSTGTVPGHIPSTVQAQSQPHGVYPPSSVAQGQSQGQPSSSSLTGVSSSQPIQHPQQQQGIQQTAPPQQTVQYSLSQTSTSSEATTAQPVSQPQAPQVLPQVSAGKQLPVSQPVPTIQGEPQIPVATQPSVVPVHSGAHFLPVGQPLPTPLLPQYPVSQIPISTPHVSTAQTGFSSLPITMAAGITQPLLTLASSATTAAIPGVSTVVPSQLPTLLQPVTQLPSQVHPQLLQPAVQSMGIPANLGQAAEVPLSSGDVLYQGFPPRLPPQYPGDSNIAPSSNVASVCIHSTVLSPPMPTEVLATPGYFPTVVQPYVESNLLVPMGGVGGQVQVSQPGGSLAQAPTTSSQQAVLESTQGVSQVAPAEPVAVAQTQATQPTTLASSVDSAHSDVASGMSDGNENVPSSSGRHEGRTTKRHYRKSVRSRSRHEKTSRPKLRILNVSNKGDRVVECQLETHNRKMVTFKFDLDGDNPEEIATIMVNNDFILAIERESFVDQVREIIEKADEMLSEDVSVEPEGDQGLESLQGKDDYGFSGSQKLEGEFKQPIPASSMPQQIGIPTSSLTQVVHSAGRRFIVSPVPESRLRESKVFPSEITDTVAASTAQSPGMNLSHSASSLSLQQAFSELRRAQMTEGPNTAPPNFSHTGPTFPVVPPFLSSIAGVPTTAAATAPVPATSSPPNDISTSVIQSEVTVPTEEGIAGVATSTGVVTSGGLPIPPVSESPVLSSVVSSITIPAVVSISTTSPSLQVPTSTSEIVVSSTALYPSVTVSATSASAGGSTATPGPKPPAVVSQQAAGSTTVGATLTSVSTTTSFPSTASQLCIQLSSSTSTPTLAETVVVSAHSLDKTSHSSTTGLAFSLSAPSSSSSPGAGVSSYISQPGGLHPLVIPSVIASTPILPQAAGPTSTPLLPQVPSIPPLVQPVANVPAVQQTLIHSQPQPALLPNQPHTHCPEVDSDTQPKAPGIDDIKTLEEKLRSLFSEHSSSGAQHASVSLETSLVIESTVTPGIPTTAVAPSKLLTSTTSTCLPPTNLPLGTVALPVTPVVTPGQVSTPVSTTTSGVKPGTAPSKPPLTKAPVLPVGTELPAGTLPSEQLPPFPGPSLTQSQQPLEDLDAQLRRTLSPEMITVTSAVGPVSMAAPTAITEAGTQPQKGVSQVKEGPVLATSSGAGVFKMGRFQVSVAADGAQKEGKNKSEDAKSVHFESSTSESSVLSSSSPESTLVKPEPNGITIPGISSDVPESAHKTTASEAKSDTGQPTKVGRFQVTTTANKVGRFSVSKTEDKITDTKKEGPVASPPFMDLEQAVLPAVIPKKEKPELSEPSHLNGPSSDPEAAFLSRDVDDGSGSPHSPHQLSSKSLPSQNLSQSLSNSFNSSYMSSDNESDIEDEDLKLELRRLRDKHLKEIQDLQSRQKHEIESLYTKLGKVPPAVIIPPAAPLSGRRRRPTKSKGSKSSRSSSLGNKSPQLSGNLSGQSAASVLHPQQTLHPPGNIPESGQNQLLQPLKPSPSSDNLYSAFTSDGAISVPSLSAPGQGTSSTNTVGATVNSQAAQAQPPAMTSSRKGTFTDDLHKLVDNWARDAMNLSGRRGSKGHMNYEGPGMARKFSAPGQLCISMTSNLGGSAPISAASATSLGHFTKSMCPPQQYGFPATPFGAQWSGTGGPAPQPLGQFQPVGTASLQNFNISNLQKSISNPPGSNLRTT", "assay": "DSF thermal shift assay", "type": "binding", "conditions": "read-out: ΔTm", "method": "as §1"}, "[17]": {"biological_target": "T14, DCAMKL1 (Homo sapiens, UniProt O15075)", "T14 construct": "purchased in-house DSF (thermal shift) panel per Fedorov et al", "T14 sequence (O15075 whole entry)": "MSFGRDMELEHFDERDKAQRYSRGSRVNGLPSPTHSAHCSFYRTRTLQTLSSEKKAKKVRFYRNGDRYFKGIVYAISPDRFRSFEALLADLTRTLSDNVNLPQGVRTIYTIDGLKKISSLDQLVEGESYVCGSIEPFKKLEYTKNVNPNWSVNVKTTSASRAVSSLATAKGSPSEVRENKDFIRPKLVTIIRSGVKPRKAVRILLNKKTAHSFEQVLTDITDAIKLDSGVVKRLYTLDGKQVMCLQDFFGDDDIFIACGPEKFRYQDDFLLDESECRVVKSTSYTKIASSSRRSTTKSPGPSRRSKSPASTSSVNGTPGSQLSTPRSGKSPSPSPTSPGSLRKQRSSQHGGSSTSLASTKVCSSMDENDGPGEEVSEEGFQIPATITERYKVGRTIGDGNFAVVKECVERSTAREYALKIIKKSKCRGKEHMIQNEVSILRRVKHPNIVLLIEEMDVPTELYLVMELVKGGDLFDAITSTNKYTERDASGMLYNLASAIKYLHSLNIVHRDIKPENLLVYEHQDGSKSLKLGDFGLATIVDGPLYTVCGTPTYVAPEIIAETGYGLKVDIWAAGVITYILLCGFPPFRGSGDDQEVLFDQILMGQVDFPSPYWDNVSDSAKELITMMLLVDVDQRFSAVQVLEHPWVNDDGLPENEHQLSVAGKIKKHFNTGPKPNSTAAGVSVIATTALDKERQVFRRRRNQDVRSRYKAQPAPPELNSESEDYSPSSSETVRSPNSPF", "assay": "DSF thermal shift assay", "type": "binding", "conditions": "read-out: ΔTm", "method": "as §1"}, "[18]": {"biological_target": "T15, CAMK4 (Homo sapiens, UniProt Q16566)", "T15 construct": "purchased in-house DSF (thermal shift) panel per Fedorov et al", "assay": "DSF thermal shift assay", "type": "binding", "conditions": "read-out: ΔTm", "method": "as §1"}, "[19]": {"biological_target": "T16, EPHA7 (Homo sapiens, UniProt Q15375)", "T16 construct": "purchased in-house DSF (thermal shift) panel per Fedorov et al", "assay": "DSF thermal shift assay", "type": "binding", "conditions": "read-out: ΔTm", "method": "as §1"}, "[20]": {"biological_target": "T17, PLK4 (Homo sapiens, UniProt O00444)", "T17 construct": "purchased in-house DSF (thermal shift) panel per Fedorov et al", "assay": "DSF thermal shift assay", "type": "binding", "conditions": "read-out: ΔTm", "method": "as §1"}, "[21]": {"biological_target": "T18, DAPK1 (Homo sapiens, UniProt P53355)", "T18 construct": "purchased in-house DSF (thermal shift) panel per Fedorov et al", "assay": "DSF thermal shift assay", "type": "binding", "conditions": "read-out: ΔTm", "method": "as §1"}, "[22]": {"biological_target": "T19, STK3 (Homo sapiens, UniProt Q13188)", "T19 construct": "purchased in-house DSF (thermal shift) panel per Fedorov et al", "assay": "DSF thermal shift assay", "type": "binding", "conditions": "read-out: ΔTm", "method": "as §1"}, "[23]": {"biological_target": "T20, STK10 (Homo sapiens, UniProt O94804)", "T20 construct": "purchased in-house DSF (thermal shift) panel per Fedorov et al", "assay": "DSF thermal shift assay", "type": "binding", "conditions": "read-out: ΔTm", "method": "as §1"}, "[24]": {"biological_target": "T21, STK39 (Homo sapiens, UniProt Q9UEW8)", "T21 construct": "purchased in-house DSF (thermal shift) panel per Fedorov et al; IC50 follow-up at Reaction Biology Corp", "assay": "DSF thermal shift assay", "type": "binding", "conditions": "read-out: ΔTm", "method": "as §1"}},
  "data": [
    {"smiles": "CN(C)C/C=C/C(=O)Nc1cc2c(Nc3ccc(F)c(Cl)c3)ncnc2cc1O[C@H]1CCOC1", "note": "[Afatinib]", "values": [
      {"measurement": "half-life at […]", "setting": "[1]", "value": 5, "unit": "h"}
    ]},
    {"smiles": "CCc1cnc(Nc2ncccc2[N+](=O)[O-])nc1N1CCN(Cc2nc3cc(C(F)(F)F)ccc3[nH]2)CC1", "note": "[Compound 21]", "values": [
      {"measurement": "IC50", "setting": "[2]", "value": "> 5000", "unit": "nM"}
    ]},
    {"smiles": "CCc1cncnc1N1CCN(Cc2nc3ccc(C(F)(F)F)cc3[nH]2)CC1", "note": "[PF-4708671]", "values": [
      {"measurement": "IC50", "setting": "[3]", "value": 160, "unit": "nM"},
      {"measurement": "Ki", "setting": "[3]", "value": 20, "unit": "nM"},
      {"measurement": "IC50", "setting": "[4]", "value": 65000, "unit": "nM"}
    ]},
    {"smiles": "CN[C@@H]1C[C@H]2O[C@@](C)([C@@H]1OC)n1c3ccccc3c3c4c(c5c6ccccc6n2c5c31)C(=O)NC4", "note": "[Staurosporine, reference compound]", "values": [
      {"measurement": "ΔTm at 10 µM", "setting": "[5]", "value": 7.4, "unit": "°C"},
      {"measurement": "ΔTm at 10 µM", "setting": "[6]", "value": 1, "unit": "°C"},
      {"measurement": "ΔTm at 10 µM", "setting": "[7]", "value": 25.1, "unit": "°C"},
      {"measurement": "ΔTm at 10 µM", "setting": "[8]", "value": 6.2, "unit": "°C"},
      {"measurement": "ΔTm at 10 µM", "setting": "[9]", "value": 20.8, "unit": "°C"},
      {"measurement": "ΔTm at 10 µM", "setting": "[10]", "value": 2.2, "unit": "°C"},
      {"measurement": "ΔTm at 10 µM", "setting": "[11]", "value": 5.9, "unit": "°C"},
      {"measurement": "ΔTm at 10 µM", "setting": "[12]", "value": 6.7, "unit": "°C"},
      {"measurement": "ΔTm at 10 µM", "setting": "[13]", "value": 2.2, "unit": "°C"},
      {"measurement": "ΔTm at 10 µM", "setting": "[14]", "value": 7.6, "unit": "°C"},
      {"measurement": "ΔTm at 10 µM", "setting": "[15]", "value": 15, "unit": "°C"},
      {"measurement": "ΔTm at 10 µM", "setting": "[16]", "value": 1.4, "unit": "°C"},
      {"measurement": "ΔTm at 10 µM", "setting": "[17]", "value": 6.3, "unit": "°C"},
      {"measurement": "ΔTm at 10 µM", "setting": "[18]", "value": 8.9, "unit": "°C"},
      {"measurement": "ΔTm at 10 µM", "setting": "[19]", "value": 12.7, "unit": "°C"},
      {"measurement": "ΔTm at 10 µM", "setting": "[20]", "value": 19, "unit": "°C"},
      {"measurement": "ΔTm at 10 µM", "setting": "[21]", "value": 9.6, "unit": "°C"},
      {"measurement": "ΔTm at 10 µM", "setting": "[22]", "value": 14.8, "unit": "°C"},
      {"measurement": "ΔTm at 10 µM", "setting": "[23]", "value": 24.4, "unit": "°C"},
      {"measurement": "ΔTm at 10 µM", "setting": "[24]", "value": 9.3, "unit": "°C"}
    ]}
  ]
}
